Reference: article PMC4063723, “Mechanisms of Pyrethroid Resistance in the Dengue Mosquito Vector, Aedes aegypti: Target Site Insensitivity, Penetration, and Metabolism” (PLoS Neglected Tropical Diseases, 2014)
Residue numbers refer to the chain shown, from its start.

What was measured:
Assay in all cases: HPTLC autoradiography of metabolites, insect-cell microsomes
Format in all cases: biochemical
Details in all cases: NADPH, pH 7.5, 25 C, co-expressed reductase and b5; labelled compound; product 4'-HO-permethrin
CYP6BB2 = target: T1, CYP6BB2 (Aedes aegypti, UniProt Q16F58)
T1 construct: gene 5565578; full-length cDNA from SP strain, baculovirus/Sf9 (expressSF+) microsomes, co-expressed with A. aegypti P450 reductase and cytochrome b5; with NADPH--cytochrome P450 reductase; Cytochrome b5
T1 sequence (Q16F58 1-507): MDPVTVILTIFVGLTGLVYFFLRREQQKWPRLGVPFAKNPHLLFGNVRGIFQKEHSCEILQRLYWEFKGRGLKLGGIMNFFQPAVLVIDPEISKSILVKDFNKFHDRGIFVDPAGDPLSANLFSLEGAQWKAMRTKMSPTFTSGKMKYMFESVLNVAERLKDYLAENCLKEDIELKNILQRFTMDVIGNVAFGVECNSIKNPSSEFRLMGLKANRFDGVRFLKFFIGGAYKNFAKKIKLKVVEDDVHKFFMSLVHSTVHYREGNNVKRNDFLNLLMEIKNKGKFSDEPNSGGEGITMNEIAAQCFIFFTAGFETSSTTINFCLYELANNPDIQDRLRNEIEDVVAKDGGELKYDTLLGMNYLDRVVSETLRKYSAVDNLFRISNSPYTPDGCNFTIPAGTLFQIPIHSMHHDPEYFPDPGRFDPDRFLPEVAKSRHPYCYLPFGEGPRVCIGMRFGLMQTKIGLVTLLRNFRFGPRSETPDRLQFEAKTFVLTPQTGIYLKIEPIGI

CYP9M6v2 = target: T2, CYP9M6v2 (Aedes aegypti, UniProt X5HYQ8)
T2 construct: full-length cDNA from SP strain (533 residues), baculovirus/Sf9 (expressSF+) microsomes, co-expressed with A. aegypti P450 reductase and cytochrome b5; with NADPH--cytochrome P450 reductase; Cytochrome b5
T2 sequence (X5HYQ8 1-533): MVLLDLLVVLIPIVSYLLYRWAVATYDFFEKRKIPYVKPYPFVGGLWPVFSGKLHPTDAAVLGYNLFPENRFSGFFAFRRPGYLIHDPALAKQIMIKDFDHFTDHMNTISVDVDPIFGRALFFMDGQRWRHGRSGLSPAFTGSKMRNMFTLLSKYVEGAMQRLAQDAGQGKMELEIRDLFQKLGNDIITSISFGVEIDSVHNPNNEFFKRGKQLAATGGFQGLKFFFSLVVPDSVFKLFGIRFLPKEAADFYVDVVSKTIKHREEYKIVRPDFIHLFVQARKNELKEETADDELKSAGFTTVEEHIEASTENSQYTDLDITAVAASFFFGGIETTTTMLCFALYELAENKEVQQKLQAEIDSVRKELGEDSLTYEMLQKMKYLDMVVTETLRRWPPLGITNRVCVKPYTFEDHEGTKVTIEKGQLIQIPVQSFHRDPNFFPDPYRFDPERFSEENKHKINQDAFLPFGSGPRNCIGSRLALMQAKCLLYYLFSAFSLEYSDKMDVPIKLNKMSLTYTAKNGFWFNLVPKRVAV

CYP9M6v1 = target: T3, CYP9M6v1 (Aedes aegypti, UniProt X5I1U9)
T3 construct: full-length cDNA from SP strain (533 residues), baculovirus/Sf9 (expressSF+) microsomes, co-expressed with A. aegypti P450 reductase and cytochrome b5; with NADPH--cytochrome P450 reductase; Cytochrome b5
T3 sequence (X5I1U9 1-533): T2 sequence (X5HYQ8 1-533) with G170R, I176V, E348G, D370G, M376V, V527L, R530K

Structure (SMILES): CC1(C)C(C=C(Cl)Cl)C1C(=O)OCc1cccc(Oc2ccccc2)c1 (stereo not drawn) [[14C]-(1RS)-trans-permethrin]
- HPTLC autoradiography of metabolites, insect-cell microsomes (CYP6BB2): CYP6BB2 exhibited strong metabolic activity for permethrin
- HPTLC autoradiography of metabolites, insect-cell microsomes (CYP9M6v2): Both CYP9M6v1 and CYP9M6v2 demonstrated relatively low but consistent permethrin metabolism
- HPTLC autoradiography of metabolites, insect-cell microsomes (CYP9M6v1): Both CYP9M6v1 and CYP9M6v2 demonstrated relatively low but consistent permethrin metabolism
